Measurements published in ChEMBL document CHEMBL4342429, “Synthesis and evaluation of substituted 8,8-dimethyl-8H-pyrano[2,3-f]chromen-2-one derivatives as vasorelaxing agents” (Bioorg Med Chem Lett, 2020).

Key:
Mesenteric artery [1] = assay: Vasodilating activity in Wistar rat endothelium intact main mesenteric artery assessed as inhibition of U46619-induced contractions at 30 uM relative to control; type: functional
Mesenteric artery [2] = assay: Vasodilating activity in Wistar rat endothelium intact main mesenteric artery assessed as inhibition of U46619-induced contractions; type: functional, tissue-based; settings: for EC50: Rattus norvegicus, Wistar, Mesenteric artery
Mesenteric artery [3] = assay: Vasodilating activity in Wistar rat endothelium intact main mesenteric artery assessed as inhibition of U46619-induced contractions at 1000 uM relative to control; type: functional
Mesenteric artery [4] = assay: Vasodilating activity in Wistar rat endothelium-denuded main mesenteric artery preconstricted with 100 nM U46619 assessed as vasorelaxation; type: functional, tissue-based
Mesenteric artery [5] = assay: Vasodilating activity in Wistar rat main mesenteric artery preconstricted with 100 nM U46619 assessed as relaxation preincubated for 20 mins in presence of 1 mM tetraethyl ammonium relative to control; type: functional
Mesenteric artery [6] = assay: Vasodilating activity in Wistar rat endothelium-denuded main mesenteric artery preconstricted with 100 nM U46619 assessed as vasorelaxation relative to control; type: functional
Mesenteric artery [7] = assay: Vasodilating activity in Wistar rat main mesenteric artery preconstricted with 100 nM U46619 assessed as vasorelaxation in presence of 80 mM KCl relative to control; type: functional
Mesenteric artery [8] = assay: Vasodilating activity in Wistar rat endothelium intact main mesenteric artery preconstricted with 100 nM U46619 assessed as vasorelaxation relative to control; type: functional
Mesenteric artery [9] = assay: Vasodilating activity in Wistar rat main mesenteric artery preconstricted with 100 nM U46619 assessed as vasorelaxation relative to control; type: functional
Mesenteric artery [10] = assay: Vasodilating activity in Wistar rat endothelium intact main mesenteric artery preconstricted with 100 nM U46619 assessed as vasorelaxation; type: functional, tissue-based
Mesenteric artery [11] = assay: Vasodilating activity against U46619-induced contractions in Wistar rat endothelium intact main mesenteric artery assessed as increase in sensitivity relative to scopoletin; type: functional

SMILES | EC50 (Mesenteric artery [2]) [µM] | Emax at 30 µM (Mesenteric artery [1]) [%] | pD2 (Mesenteric artery [2]) | fold change (FC) (Mesenteric artery [11]) | also measured
CC(CN(C)C)Oc1cc2ccc(=O)oc2c2c1OC(C)(C)C=C2 (stereo not given) |  | < 10 |  |  | 
CCN(CC)CCOc1cc2ccc(=O)oc2c2c1OC(C)(C)C=C2 |  | < 10 |  |  | 
CN(C)CCOc1cc2ccc(=O)oc2c2c1OC(C)(C)C=C2 |  | < 10 |  |  | 
COc1cc2ccc(=O)oc2cc1O [SCOPOLETIN] | 112 |  | 3.95 |  | Emax at 1000 µM (Mesenteric artery [3]): 89.2%
CCCCN(C)C(=O)CCCOc1cc2ccc(=O)oc2c2c1OC(C)(C)C=C2 |  | < 10 |  |  | 
CCCCCN(C)C(=O)CCCCOc1cc2ccc(=O)oc2c2c1OC(C)(C)C=C2 | 5.02 | 83.1 | 5.299 | 22.31 | 
CC1(C)C=Cc2c(c(OCCN3CCCCC3)cc3ccc(=O)oc23)O1 |  | < 10 |  |  | 
CC1(C)C=Cc2c(c(OCCN3CCCC3)cc3ccc(=O)oc23)O1 |  | < 10 |  |  | 

More lines, main results first:

EC50 (Mesenteric artery [2]) [µM] | SMILES | Emax at 30 µM (Mesenteric artery [1]) [%] | pD2 (Mesenteric artery [2]) | fold change (FC) (Mesenteric artery [11]) | also measured
1.58 | COc1cc2ccc(=O)oc2c2c1OC(C)(C)C=C2 | 96.7 | 5.802 | 70.89 | Activity (Mesenteric artery [4]): Dose-dependent effect; Emax (Mesenteric artery [5]): 54.1%; Emax (Mesenteric artery [6]): 93.7%; Emax (Mesenteric artery [7]): 53.3%; Emax (Mesenteric artery [8]): 94.9%; Emax (Mesenteric artery [9]): 94%; Activity (Mesenteric artery [10]): Dose-dependent effect
2.66 | CCCCN(C)C(=O)COc1cc2ccc(=O)oc2c2c1OC(C)(C)C=C2 | 65.7 | 5.575 | 42.11 | 
3.81 | CCCCCN(C)C(=O)COc1cc2ccc(=O)oc2c2c1OC(C)(C)C=C2 | 94 | 5.419 | 29.4 | 
2.12 | CCCCN(C)C(=O)CCCCOc1cc2ccc(=O)oc2c2c1OC(C)(C)C=C2 | 63.6 | 5.674 | 52.83 | 
3.23 | CCCCCN(C)C(=O)CCCOc1cc2ccc(=O)oc2c2c1OC(C)(C)C=C2 | 95.1 | 5.491 | 34.67 | 
